In assay [1] the target is SIK1 (Homo sapiens, UniProt P57059). The experiment in a line: biochemical. The conditions noted are these: read-out: % enzyme activity, 1 μM; Run 1, Run 2.
For assay [2], the target named is T1, BRSK1 (Homo sapiens, UniProt Q8TDC3).
T1 sequence (Q8TDC3 1-778): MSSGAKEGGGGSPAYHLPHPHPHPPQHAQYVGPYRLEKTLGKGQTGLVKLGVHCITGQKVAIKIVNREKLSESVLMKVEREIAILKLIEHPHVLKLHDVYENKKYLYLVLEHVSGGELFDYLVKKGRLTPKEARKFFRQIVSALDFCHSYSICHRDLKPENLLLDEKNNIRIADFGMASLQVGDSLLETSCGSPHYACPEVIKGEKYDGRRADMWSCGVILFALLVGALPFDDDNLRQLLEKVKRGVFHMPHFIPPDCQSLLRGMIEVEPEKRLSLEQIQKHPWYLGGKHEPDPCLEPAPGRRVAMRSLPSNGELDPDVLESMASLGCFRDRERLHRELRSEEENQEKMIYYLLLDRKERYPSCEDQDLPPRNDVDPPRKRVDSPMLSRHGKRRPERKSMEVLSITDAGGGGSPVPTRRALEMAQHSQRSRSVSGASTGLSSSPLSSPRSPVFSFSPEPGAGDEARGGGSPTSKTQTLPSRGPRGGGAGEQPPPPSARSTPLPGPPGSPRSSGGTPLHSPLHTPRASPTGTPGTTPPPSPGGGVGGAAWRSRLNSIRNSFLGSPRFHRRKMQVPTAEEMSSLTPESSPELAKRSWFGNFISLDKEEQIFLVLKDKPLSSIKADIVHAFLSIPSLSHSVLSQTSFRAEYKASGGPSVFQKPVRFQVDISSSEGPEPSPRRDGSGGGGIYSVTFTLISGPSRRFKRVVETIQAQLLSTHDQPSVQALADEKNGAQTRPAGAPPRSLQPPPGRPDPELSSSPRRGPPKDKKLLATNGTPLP
The experiment in a line: biochemical. The conditions noted are these: read-out: % enzyme activity, 1 μM; Run 1, Run 2.

Assay [3] addresses T2, BRSK2 (Homo sapiens, UniProt Q8IWQ3).
T2 sequence (Q8IWQ3 1-736): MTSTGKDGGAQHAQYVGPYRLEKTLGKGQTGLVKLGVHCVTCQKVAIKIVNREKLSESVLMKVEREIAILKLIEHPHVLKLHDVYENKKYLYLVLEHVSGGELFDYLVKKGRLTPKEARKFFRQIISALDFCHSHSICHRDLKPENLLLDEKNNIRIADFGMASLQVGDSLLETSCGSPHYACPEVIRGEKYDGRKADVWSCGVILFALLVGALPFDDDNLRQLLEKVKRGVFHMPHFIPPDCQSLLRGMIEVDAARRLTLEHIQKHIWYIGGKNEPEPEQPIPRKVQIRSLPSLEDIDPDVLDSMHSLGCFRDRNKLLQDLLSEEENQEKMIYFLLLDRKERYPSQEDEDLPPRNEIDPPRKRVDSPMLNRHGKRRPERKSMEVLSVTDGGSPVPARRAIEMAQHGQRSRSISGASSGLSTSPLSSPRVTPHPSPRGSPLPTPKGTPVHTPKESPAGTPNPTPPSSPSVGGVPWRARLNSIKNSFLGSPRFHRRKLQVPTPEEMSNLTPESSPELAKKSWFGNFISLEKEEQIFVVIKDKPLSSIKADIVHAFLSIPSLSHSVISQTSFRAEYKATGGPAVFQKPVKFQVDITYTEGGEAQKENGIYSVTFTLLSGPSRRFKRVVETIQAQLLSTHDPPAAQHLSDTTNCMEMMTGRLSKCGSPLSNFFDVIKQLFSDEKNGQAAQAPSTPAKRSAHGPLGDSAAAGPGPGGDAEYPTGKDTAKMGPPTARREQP
Conditions: 1 μM; Run 1, Run 2.

Assay [4] deals with T3, NEK9 (Homo sapiens, UniProt Q8TD19).
T3 sequence (Q8TD19 1-979): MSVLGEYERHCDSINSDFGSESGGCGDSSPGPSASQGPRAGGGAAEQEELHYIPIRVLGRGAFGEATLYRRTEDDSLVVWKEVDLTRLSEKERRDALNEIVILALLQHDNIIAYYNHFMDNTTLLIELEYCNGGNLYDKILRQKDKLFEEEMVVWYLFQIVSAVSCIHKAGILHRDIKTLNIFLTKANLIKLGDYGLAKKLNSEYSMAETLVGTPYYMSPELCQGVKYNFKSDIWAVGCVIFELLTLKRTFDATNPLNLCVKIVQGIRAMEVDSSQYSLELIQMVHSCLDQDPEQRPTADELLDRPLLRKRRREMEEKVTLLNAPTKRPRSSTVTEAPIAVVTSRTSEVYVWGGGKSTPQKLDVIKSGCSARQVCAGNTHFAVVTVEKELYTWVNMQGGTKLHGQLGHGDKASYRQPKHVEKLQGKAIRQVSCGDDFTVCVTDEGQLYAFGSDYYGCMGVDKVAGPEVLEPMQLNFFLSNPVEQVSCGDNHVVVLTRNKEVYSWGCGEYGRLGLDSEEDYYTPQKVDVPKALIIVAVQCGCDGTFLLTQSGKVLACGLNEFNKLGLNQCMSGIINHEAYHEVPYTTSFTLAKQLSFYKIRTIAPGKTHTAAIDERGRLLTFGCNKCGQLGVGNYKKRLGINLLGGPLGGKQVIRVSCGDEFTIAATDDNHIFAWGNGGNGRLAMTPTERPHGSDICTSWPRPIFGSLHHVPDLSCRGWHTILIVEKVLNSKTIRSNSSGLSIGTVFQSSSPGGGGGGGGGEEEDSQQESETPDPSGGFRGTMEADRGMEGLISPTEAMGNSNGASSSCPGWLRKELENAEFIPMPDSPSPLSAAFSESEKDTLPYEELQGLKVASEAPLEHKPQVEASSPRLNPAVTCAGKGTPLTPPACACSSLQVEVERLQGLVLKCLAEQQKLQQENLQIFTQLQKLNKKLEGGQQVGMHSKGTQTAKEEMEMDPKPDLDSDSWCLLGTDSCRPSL
The conditions noted are these: 1 μM; Run 1, Run 2.

Assay [5] deals with TRKA (Homo sapiens, UniProt P04629). The conditions noted are these: 1 μM; Run 1, Run 2.
Sequence of TRKA (P04629 33-796): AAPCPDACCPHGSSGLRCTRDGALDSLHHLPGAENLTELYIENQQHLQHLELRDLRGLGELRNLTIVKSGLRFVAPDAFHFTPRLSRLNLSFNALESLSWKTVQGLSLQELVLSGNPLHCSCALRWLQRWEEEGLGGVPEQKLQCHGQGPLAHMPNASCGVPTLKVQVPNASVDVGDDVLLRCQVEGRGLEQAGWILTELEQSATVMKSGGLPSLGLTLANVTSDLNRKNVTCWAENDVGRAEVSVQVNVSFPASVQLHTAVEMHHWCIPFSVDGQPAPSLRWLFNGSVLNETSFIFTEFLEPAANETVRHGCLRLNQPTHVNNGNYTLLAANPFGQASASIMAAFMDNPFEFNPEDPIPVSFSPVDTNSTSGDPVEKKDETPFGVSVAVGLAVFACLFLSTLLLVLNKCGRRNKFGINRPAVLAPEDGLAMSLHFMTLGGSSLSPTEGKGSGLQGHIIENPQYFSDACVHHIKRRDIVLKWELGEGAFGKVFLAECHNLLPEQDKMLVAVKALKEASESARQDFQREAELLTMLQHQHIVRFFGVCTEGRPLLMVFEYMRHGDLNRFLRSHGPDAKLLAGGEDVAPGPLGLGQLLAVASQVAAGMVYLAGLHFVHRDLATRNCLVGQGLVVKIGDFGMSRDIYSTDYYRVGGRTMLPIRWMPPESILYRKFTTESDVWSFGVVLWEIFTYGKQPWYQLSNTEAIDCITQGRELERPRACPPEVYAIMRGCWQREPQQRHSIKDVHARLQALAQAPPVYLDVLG

Sequence of SIK1 (P57059 whole entry): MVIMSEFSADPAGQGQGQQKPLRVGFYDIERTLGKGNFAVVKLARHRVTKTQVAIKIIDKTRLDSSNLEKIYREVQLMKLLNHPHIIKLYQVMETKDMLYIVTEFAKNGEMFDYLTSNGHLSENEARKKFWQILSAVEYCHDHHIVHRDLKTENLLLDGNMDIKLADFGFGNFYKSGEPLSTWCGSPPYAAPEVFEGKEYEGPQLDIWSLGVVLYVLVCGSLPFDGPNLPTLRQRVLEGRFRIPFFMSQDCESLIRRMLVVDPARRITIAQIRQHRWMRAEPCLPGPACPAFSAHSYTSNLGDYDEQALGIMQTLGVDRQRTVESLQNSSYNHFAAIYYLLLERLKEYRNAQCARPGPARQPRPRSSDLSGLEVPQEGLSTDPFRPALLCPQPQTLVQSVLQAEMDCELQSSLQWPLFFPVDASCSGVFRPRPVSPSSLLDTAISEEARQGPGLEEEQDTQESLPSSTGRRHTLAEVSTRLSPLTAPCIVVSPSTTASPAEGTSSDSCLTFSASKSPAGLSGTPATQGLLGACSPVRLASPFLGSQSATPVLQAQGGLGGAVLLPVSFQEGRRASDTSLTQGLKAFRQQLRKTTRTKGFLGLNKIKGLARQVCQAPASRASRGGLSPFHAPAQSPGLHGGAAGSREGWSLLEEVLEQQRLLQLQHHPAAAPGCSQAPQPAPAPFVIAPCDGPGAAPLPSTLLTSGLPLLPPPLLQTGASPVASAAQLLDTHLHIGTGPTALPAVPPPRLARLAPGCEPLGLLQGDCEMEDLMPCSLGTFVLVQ

`COc1cc(-c2cncc(-c3ccc(N4CCN(C)CC4)cc3)c2C)cc(F)c1C(N)=O` [Compound 26a, 2-Fluoro-6-methoxy-4-(4-methyl-5-(4-(4-methylpiperazin-1-yl)phenyl)pyridin-3-yl)benzamide]: the figures for the remaining activity at 1 µM in assay [1] and in assay [2] were 82.9% and 84.7%, respectively. Further, the “% enzyme activity” value is 60.95% in assay [3], 91.72% in assay [4] and 90.11% in assay [5].

As for `COc1cc(-c2cncc(-c3ccc(N4C[C@@H](C)N(C)[C@@H](C)C4)cc3)c2C)cc(F)c1C(N)=O` [Compound 26c, 2-Fluoro-6-methoxy-4-(4-methyl-5-(4-((3R,5S)-3,4,5-trimethylpiperazin-1-yl)phenyl)pyridin-3-yl)benzamide], the remaining activity at 1 µM in assay [1] was found to be 93.8%; in assay [2] it was 84%. The “% enzyme activity” value in assay [3] is 76.84%; in assay [4] it was 93.51%; in assay [5], 94.00%.
